Measured values taken from patent US20250221936A1, “ENGINEERED HEMICHANNELS, ENGINEERED VESICLES, AND USES THEREOF” (VIRGINIA TECH INTELLECTUAL PROPERTIES, INC., priority 2018, published 2025).
Entries after “also recorded” stand apart in the source; their conditions may differ.

Key:
[1] = molecular target: T1, Cx43 CT (amino acids 255 to 382) (Rattus norvegicus, UniProt P08050); experiment: Surface plasmon resonance, Cx43 CT analyte; format: binding; details: biotin-peptide immobilized on streptavidin chip; analyte 0.5 to 15 μM
T1 construct: Cx43-CT: amino acids 255 to 382; GST (N, cleaved yes); made in house; host or cells: E. coli BL21
Protocol: Efficacy of the interaction of each alpha CT1 variant with Cx43 CT or Cx43 CT-KK/QQ was tested using surface plasmon resonance (SPR) as described previously 20. In brief, SPR experiments were performed using a Biacore T200 (GE Healthcare). Equal amounts (response units/RU) of biotin-alpha CT1 variants were immobilized on each flow cell of a streptavidin-coated sensor chip (Biacore Inc) using immobilization buffer (in mM: 10 HEPES, 1 EDTA, 100 NaCl, 0.005% Tween-20) at pH 7.4. Measurements with wild-type (wt) Cx43 CT and mutant Cx43 CT-KK/QQ analytes were done in running buffer (in mM: 10 HEPES, 100 NaCl, pH 7.4) at a flow rate of 30 μl/min. Binding of analytes were verified at different concentrations, in random order (injection volume 120 μl). Interacting proteins were then unbound by injection of […] regeneration buffer (50 mM NaOH and 1 M NaCl) at a flow rate of 10 μl/min. Background levels were obtained from a reference cell containing a biotin-control peptide in which the reversed sequence of the last 9 amino acids of Cx43 was fused to biotin-antennapedia. The RU values obtained with biotin-control peptide were subtracted from the RU values obtained with the different biotin-alphaCT1 variants (wild-type or mutant) to generate the different response curves.

ZO-1 PDZ2 = molecular target: T2, ZO-1 PDZ2 (Homo sapiens, UniProt Q07157); experiment: EDC cross-linking to GST fusion ZO-1 PDZ domains; format: binding; details: 5, 25 and 50 μM
T2 construct: the second of the three PDZ (PDZ2) domains of ZO-1; made in house; host or cells: E. coli BL21
T2 sequence (Q07157 186-264 limits assumed): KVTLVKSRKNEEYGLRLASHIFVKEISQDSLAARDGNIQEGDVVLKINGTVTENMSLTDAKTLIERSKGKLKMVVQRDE
Protocol: To characterize the interaction between the Cx43 CT substrate and peptides, the in vitro kinase assay was performed as above with modification and the constituents then subjected to a cross-linking reaction. The assay buffer used was 20 mM 3-(N-morpholino) propanesulfonic acid (MOPS), pH 7.2. All other reagents present in the kinase reaction were maintained as described above. The reaction was allowed to proceed at 37° C. for 15 minutes. Afterwards, the carbodiimide crosslinker 1-Ethyl-3-(3-dimethylaminopropyl) carbodiimide HCl (EDC) (Thermo, 22980) was added to each solution for a final concentration of 20 mM. The solution was allowed to cross-link for one hour at room temperature. The reaction was stopped by the addition of 4×LDS loading buffer, boiled for 5 minutes and subsequently separated by PAGE. The resulting gel was stained in Coomassie brilliant blue (Sigma, B0770) for two hours and destained in a solution of 4% methanol 7% acetic acid overnight. Gel bands were subsequently excised for mass spectrometric analysis. For the direct interaction between protein and peptides, PBS, pH 7.5 was used as the coupling buffer. The protein (50 μg/ml) and peptide (25 μM) were allowed to react at room temperature for one hour before EDAC was added to the reaction mixture. The reaction was Western blotted for Cx43, GST or NeutroAvidin.

[2] = test system: Neonatal cardiac fibroblasts (NHFs); experiment: Collagen synthesis by neonatal cardiac fibroblasts, Western blotting; format: cell-based, rat
Source text: Isolation and treatment of Neonatal Cardiac Fibroblasts with Cx43 based peptides (peptides used included ACT1, JM1, JM2, Antennapedia [ANT], reverse ACT1 [Rev], poly Arginine [poly r]). Said peptides with and without internalization vectors can be loaded into the provided EVs and can elicit results similar to those observed for naked peptide as follows. Neonatal cardiac fibroblasts (NHFs) were isolated from 3-4 day old rat hearts by collagenase digestion (100 U/mL) and differential attachment as previously described (Borg et ah, 1984). All cells were maintained in Dulbecco's Modified Eagle Medium (DMEM) supplemented with 10% Fetal Bovine Serum and 100 U/mL penicillin G and 100 μg/mL streptomycin and used prior to passage four. For experiments, 40,000 NHFs were plated into the wells of a 24-well tissue culture plate and grown for 24-48 hours. On the day of treatment, media was removed from each well and replaced with fresh media containing 50 μg/mL L-ascorbic acid-2-phosphate; Sigma Chemical Co., St. Louis, MO). The appropriate volume of each peptide (resuspended in sterile, deionized 18 MQ resistivity water) was added to achieve the desired final concentration (30, 90, 180 µM peptide concentrations were tested). Culture plates were incubated overnight in a 37° C. incubator with 5% C02.
Protein Isolation and Examination of Collagen Synthesis by Western Blotting. Conditioned culture media was collected from each well and stored at −20° C. for analysis of soluble collagen. Cellular protein, including insoluble collagen and collagen still within the NHFs, were isolated by adding 100-200 μL, of cell lysis buffer (0.01 M Tris, pH 7.4, 0.001 M Sodium Orthovanadate, 1% sodium dodecylsulfate [SDS]) to each well and incubating 10 minutes at room temperature. Prior to addition, cell lysis buffer was warmed to facilitate solubilization of SDS and 100 u L of Halt protease inhibitor (Pierce Biotechnology, Rockford, IL) was added per 10 mL buffer to be used. After incubation, the well bottoms were scraped and liquid transferred to a microcentrifuge tube for storage at −20° C. Protein concentrations of cell lysates were determined using a Micro BCA assay (Pierce). SDS-PAGE samples were prepared by combining either 10 μg of cell lysate or 30 μL of conditioned media with XT loading buffer (BioRad, Hercules, CA), dithiothreitol and boiled for five minutes. Samples were loaded onto 3-8% Tris-Acetate Criterion X T gels (BioRad, Hercules, CA) and proteins separated at 140V. After electrophoresis, proteins were transferred onto […] nitrocellulose membranes (BioRad) overnight at room temperature (Transfer buffer: 25 mM Tris, 192 mM Glycine, 20% Methanol, 0.01% SDS). The presence of collagen was determined by probing the membranes with a rabbit anti-mouse collagen type I antibody (MD Biosciences) at 1:20,000 dilution in blocking buffer (5% milk in Tris-buffered saline) followed by a goat anti-rabbit IgG horseradish peroxidase conjugated antibody at 1:100,000 (Southern Biotech Associates) and detection with Pierce SuperSignal Femto West detection reagent (Pierce). To assess the activity of JM1 and JM2 peptides with respect to collagen production and their potential in mediating wound healing, cardiac fibroblasts were treated with these two peptides and their effectiveness compared to that for the previous described Cx43 peptide ACT1. NHFs were treated with various concentrations of JM1, JM2, ACT1, and ANT (Antennapedia) peptides, vehicle (water) or left untreated and the production of collagen both in the culture media and cell-associated collagen assessed by western blotting. […] To evaluate the impact of the poly-Arginine (poly-r)N-terminal sequence on JM1 and Jm2 activity, NHF cells were treated with a poly-r peptide.

[3] = test system: 8 mm wide circular excisional skin injuries; details: 100 μM in 30% pluronic gel; 10-14 day time course; cited from earlier work

T1 sequence (P08050 255-382): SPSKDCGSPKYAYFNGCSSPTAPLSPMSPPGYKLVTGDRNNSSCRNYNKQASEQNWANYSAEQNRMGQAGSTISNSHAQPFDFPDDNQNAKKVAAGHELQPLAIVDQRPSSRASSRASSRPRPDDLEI

Row | Sequence | SPR binding to Cx43 CT [1] | interaction with ZO-1 PDZ2 (ZO-1 PDZ2) | mature type I collagen in conditioned media ([2]; 30, 90, 180 µM) | also measured
1 | RQPKIWFPNRRKPWKK RPRPAALAI (RQPKIWFPNRRKPWKKRPRPAALAI) [M1 AALAI] | loss of Cx43 CT binding competence | – | – | –
2 | RQPKIWFPNRRKPWKKRPRPDDLAI [M3 DDLAI] | abrogated peptide interaction with Cx43 CT | – | – | –
3 | RQPKIWFPNRRKPWKKRPRPDDLE [alpha CT1-I] | – | incompetent to interact; also recorded: abrogates interaction with ZO-1 PDZ2 | – | –
4 | RQPKIWFPNRRKPWKKRPRPDDLEI [alpha CT1] | – | selectivity of alpha CT1 for ZO-1 PDZ2 | dose-dependent reduction in the secretion of mature, fully processed collagen | healing of excisional injuries [3]: closed faster, were less inflamed in appearance, healed faster and scarred less
5 | VFFKGVKDRVKGRSD [JM2] | – | – | dose-dependent decrease in the production of mature, type I collagen | mature type I collagen in conditioned media ([2]; 180 μM): no mature type I collagen was detected; collagen produced versus poly-r peptide ([2]; about 90 μM): less than half of that produced by cells treated with the poly-r peptide; mature type I collagen in cell lysate ([2]; versus ACT1 peptide): more profound reduction in the amount of mature type I collagen
